Data: patent US10307410B2, “Mcl-1 modulating compounds for cancer treatment” (CENTRE REGIONAL DE LUTTE CONTRE LE CANCER FRANCOIS BACLESSE, priority 2014, dated 2019)
“Also recorded” adds a separate entry of the source.

Key:
[1] = target: T1, Noxa/Mcl-1 interaction (Homo sapiens, UniProt Q07820); assay: BRET assay, Noxa/Mcl-1 interaction; assay type: cell-based; conditions: BRET in Hela cells, 10 μM, 16 hours
T1 construct: expressed in transfected cells; host or cells: HeLa cells
Protocol: (§1) Hela cells were seeded on 6-well plates and transfected with 200 ng/well of plasmid pRLuc-Bax, pRLuc-Puma or pRLuc-Noxa coding for BRET donors and 1 µg/well of peYFP-Bcl-xL or peYFP-Mcl-1 coding for BRET acceptors (or with pCMV-Bcl-xL or pCMV-Mcl-1 for control). Twenty-four hours after transfection, cells were trypsinized and re-seeded into white 96 well plate flat bottom, incubated for another day, and then treated with drugs for 16 hours at 10 μM. Light emission at 485 nm and 530 nm was measured consecutively using the Mithras fluorescence-luminescence detector LB 940 (Berthold) after adding the luciferase substrate, coelenterazine H (Uptima) at a final concentration of 5 μM. BRET ratios were calculated as described [Terrillon et al. (2003) Mol Endocrinol 17, 677-691, Vo et al. (2012) Eur J Med Chem., 286-93].

[2] = target: T2, Mcl-1/Puma interaction (Homo sapiens, UniProt Q07820); assay: BRET assay, Mcl-1/Puma interaction; assay type: cell-based; conditions: BRET in Hela cells, 10 μM, 16 hours
T2 construct: expressed in transfected cells; host or cells: HeLa cells
T2 sequence (Q07820 whole entry): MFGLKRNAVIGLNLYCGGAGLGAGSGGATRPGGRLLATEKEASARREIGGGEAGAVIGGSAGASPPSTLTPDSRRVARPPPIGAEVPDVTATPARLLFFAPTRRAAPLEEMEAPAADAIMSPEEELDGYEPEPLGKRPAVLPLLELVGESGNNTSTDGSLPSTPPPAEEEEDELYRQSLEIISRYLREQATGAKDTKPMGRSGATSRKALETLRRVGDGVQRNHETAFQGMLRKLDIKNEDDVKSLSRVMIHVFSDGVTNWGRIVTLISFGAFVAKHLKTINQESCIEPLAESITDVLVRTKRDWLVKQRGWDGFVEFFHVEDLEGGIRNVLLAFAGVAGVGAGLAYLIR
Protocol: as §1

[3] = tested on: IGROV1-R10 chemoresistant ovarian cancer cells; assay: Pyridoclax / ABT-737 association, apoptotic cell death; assay type: cell-based; conditions: IGROV1-R10, single agent
Protocol: (§2) FIG. 4 represents the effect of the association of Pyridoclax with ABT-737 on chemoresistant ovarian cancer cells IGROV1-R10 (top) and SKOV3 (bottom). Cells were concomitantly (A, E) or sequentially (B) exposed to 25 μM Pyridoclax and 5 μM ABT-737, and cellular effects were assessed either longitudinally (A, B, E) or after 24 h (C, D, F). [A, B, E] real time cellular activity assessed by impedancmetry (xCELLigence technology), after concomitant exposure (A, E) or sequential exposure (B; 24 h Pyridoclax, then ABT-737). [C]: Cellular morphology and DNA content histograms after a 24 h concomitant exposure. [D and F]: PARP and caspase 3 cleavage after a 24 h concomitant exposure.
(§3) Adherent and floating cells were pooled, washed with 1×PBS and centrifuged at 200 g for 5 min before staining by Annexin V, propidium iodide or both, as recommended by the manufacturer (Roche Diagnostic, Indianapolis, USA). Briefly, 100 μl of Annexin V—Flit or propidium iodide or both were added on the cells pellet (10^6 cells) and incubated 15 minutes at room temperature in obscurity. 500 μl of sample buffer was then added on the suspensions that were thereafter analyzed using a Gallios flow cytometer (Beckman Coulter, Roissy, France) and cell cycle distribution was determined using Kaluza acquisition software (Beckman Coulter).
(§4) Cells were rinsed with ice-cold PBS, suspended in a lysis buffer [RIPA:NaCl 150 mM, Tris (pH 8) 50 mM, Triton X100 1%, PMSF 4 mM, EDTA 5 mM, NaF 10 mM, NaPPi 10 mM, Na3OV4 1 mM, aprotinin 0.5 μl/ml and 4.6 ml ultra pure water] and incubated on ice for 30 minutes. Lysates were collected after centrifugation (13200 g, 10 min, 4° C.) and protein concentrations were determined using the Bradford assay (Bio-Rad, Hercules, USA). 20 μg of protein were separated by SDS-PAGE on a 4-12% gradient polyacrylamide gel (Invitrogen, Cergy-Pontoise, France) and transferred to Hybond-PVDF membranes (Amersham, Orsay, France). […]

[4] = tested on: SKOV3 chemoresistant ovarian cancer cells; assay: as above; assay type: cell-based, human; conditions: SKOV3, single agent
Protocol: as §2, §3, §4

T1 sequence (Q07820 whole entry): as above

effect on Noxa/Mcl-1 interaction [1]: not able to modify these interactions
SMILES: CN(C)CC[C@H](CSc1ccccc1)Nc1ccc(S(=O)(=O)NC(=O)c2ccc(N3CCN(Cc4ccccc4-c4ccc(Cl)cc4)CC3)cc2)cc1[N+](=O)[O-] [ABT-737, 4-[4-[[2-(4-chlorophenyl)phenyl]methyl]piperazin-1-yl]-N-[4-[[(2R)-4-(dimethylamino)-1-phenylsulfanylbutan-2-yl]amino]-3-nitrophenyl]sulfonylbenzamide, reference compound]
effect on Mcl-1/Puma interaction [2]: not able to modify these interactions; also recorded: not able to modify this interaction
cell death as single agent [3]: neither ABT-737 nor Pyridoclax induced cell death as single agents
cell death as single agent [4]: neither ABT-737 nor Pyridoclax induced cell death as single agents
